For test [1], the system named is HEK‐TREx control (null) cells. Description: Manual whole-cell patch clamp on control cells. Format: cell-based, human. The conditions noted are these: 10 μM, HEK-TREx cells without PIEZO1 transfection. As for the experimental part:
(§1) For manual patch clamp, macroscopic transmembrane ionic currents of mPIEZO1 HEK‐TREx cells (or control HEK‐TREx cells) were recorded using the standard whole‐cell configuration for patch clamp in voltage‐clamp mode. For studies of HEK 293 cells overexpressing PIEZO2 (or control HEK 293 cells), the outside‐out patch configuration was used in voltage‐clamp mode. All recordings were made using an Axopatch 200B amplifier (Axon Instruments, Inc., USA) equipped with Digidata 1550B hosted by a PC running pClamp 10.7 software (Molecular Devices, USA) at room temperature. The cells were maintained during the experiment in an external salt buffer solution (SBS) of the following composition: 135 mM NaCl, 5 mM KCl, 1.5 mM CaCl2, 1.2 mM MgCl2, 8 mM D‐glucose and 10 mM HEPES (titrated to pH 7.4 with NaOH). […] For outside‐out experiments, Na2ATP and Na2GTP were omitted. For whole‐cell experiments, cells were held at 0 mV and current amplitude was monitored by application of ramp voltage protocol from −100 to +100 mV at 10 s intervals. Currents were measured at −100 and +100 mV. Test compounds were applied in the external solution using a bath perfusion system. SBS flow was applied to the cells for 1 min before the addition of compounds. […] Data were analysed and plotted using pClamp 10.7 and Microcal Origin 2018 (Microcal Software, USA).
(Patch clamp records ionic current or voltage across a cell membrane.)

The next test has as its target T1, mPIEZO1 (Mus musculus, UniProt E2JF22).
T1 construct: expressed in transfected cells
In words: Manual whole-cell patch clamp on mPIEZO1-TREx cells. Format: cell-based. The conditions noted are these: 10 μM, ramp −100 to +100 mV. On the procedure: as §1

The test system of another test is mouse PIEZO2 (mPIEZO2). Further details: method as in Syeda et al., 2015. The conditions noted are these: mPIEZO2 overexpressed in HEK 293 cells; ref Syeda et al., 2015; cited from earlier work.

This is an account of results in paper PMC10952572, “Improved PIEZO1 agonism through 4‐benzoic acid modification of Yoda1” (British Journal of Pharmacology, 2023).

Molecules are shown by their SMILES. “Also recorded” adds a separate entry of the source.

T1 sequence (E2JF22 whole entry): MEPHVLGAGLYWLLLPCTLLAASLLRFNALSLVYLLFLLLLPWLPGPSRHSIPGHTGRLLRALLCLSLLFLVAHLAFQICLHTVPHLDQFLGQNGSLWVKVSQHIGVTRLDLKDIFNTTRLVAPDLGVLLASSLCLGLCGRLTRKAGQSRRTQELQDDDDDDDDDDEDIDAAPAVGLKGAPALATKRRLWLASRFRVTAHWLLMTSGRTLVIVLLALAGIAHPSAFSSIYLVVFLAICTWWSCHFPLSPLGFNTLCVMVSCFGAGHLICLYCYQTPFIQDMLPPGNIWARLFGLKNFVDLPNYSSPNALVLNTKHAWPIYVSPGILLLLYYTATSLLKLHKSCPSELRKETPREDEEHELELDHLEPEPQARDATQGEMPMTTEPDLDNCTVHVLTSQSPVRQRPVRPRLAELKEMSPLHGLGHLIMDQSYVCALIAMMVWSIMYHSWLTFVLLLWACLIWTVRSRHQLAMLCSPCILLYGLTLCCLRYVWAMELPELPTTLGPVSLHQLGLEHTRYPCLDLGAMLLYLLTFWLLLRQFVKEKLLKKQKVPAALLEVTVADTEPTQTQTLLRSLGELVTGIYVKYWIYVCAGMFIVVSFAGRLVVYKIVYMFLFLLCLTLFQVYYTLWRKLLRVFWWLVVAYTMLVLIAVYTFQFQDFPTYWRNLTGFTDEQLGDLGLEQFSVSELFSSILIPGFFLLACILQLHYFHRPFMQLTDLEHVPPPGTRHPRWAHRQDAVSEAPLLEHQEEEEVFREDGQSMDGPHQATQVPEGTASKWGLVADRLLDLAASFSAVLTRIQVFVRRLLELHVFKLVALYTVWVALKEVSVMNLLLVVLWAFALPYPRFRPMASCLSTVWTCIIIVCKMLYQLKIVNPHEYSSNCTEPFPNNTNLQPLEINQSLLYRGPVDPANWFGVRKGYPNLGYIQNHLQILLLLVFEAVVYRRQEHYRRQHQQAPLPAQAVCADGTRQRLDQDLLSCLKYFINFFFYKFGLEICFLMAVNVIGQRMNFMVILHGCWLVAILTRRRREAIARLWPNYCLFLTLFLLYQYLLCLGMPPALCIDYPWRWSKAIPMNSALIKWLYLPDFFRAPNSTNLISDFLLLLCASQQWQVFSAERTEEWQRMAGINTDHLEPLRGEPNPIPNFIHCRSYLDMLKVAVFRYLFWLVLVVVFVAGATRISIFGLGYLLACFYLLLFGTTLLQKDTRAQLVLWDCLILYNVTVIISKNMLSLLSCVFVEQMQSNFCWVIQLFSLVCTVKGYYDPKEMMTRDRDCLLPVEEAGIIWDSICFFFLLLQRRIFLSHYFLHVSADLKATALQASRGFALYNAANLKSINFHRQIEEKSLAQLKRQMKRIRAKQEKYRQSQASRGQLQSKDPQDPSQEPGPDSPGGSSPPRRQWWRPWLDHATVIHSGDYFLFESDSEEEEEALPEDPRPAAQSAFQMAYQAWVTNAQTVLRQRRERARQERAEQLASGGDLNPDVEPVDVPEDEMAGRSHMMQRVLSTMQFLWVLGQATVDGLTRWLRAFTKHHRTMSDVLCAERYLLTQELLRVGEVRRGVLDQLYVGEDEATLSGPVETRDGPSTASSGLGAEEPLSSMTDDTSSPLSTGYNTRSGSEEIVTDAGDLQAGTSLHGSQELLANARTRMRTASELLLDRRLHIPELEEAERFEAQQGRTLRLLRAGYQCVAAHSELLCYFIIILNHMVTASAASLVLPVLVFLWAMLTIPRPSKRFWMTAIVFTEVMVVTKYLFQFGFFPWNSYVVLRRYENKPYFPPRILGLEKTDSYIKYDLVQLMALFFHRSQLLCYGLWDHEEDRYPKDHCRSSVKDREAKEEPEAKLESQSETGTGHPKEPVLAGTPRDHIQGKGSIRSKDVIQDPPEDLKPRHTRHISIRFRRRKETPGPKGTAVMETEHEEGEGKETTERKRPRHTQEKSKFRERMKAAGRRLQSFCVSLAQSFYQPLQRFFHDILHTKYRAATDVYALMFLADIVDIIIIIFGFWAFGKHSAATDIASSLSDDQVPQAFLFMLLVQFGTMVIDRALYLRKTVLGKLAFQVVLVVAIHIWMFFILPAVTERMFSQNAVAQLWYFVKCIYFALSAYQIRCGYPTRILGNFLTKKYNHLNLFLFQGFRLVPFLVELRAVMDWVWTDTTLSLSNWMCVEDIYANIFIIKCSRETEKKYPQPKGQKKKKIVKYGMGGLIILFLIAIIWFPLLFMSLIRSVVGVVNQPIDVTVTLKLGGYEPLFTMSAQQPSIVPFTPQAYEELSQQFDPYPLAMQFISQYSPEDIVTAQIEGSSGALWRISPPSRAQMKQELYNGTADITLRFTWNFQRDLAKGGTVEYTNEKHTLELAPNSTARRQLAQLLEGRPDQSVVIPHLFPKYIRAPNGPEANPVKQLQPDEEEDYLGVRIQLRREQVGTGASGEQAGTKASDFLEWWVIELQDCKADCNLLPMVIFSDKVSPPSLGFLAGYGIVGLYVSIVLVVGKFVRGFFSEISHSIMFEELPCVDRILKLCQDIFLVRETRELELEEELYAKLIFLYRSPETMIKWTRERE

With `O=C(O)c1ccc(-c2nnc(SCc3c(Cl)cccc3Cl)s2)cc1` [KC159], the “Whole-cell current in null cells” value in test [1] is recorded as “not null cells”. Also, the Whole-cell current entry on mPIEZO1 was “increases current”. Regarding `Clc1cccc(Cl)c1CSc1nnc(-c2cnccn2)s1` [Yoda1, 2‐[5‐[[(2,6‐dichlorophenyl)methyl]thio]‐1,3,4‐thiadiazol‐2‐yl]pyrazine], in the test on mouse PIEZO2 (mPIEZO2), the “Activation of PIEZO2” value is “does not activate; also recorded: not to activate”.
